target: T1, Ceramide transfer protein (Homo sapiens, UniProt Q9Y5P4); assay: Binding affinity to histidine-tagged human recombinant […] containing CERT START domain pre-incubated for 30 mins before biotinylated ceramide probe addition and measured after 18 hrs post probe addition by TR-FRET binding assay
T1 sequence (Q9Y5P4 whole entry): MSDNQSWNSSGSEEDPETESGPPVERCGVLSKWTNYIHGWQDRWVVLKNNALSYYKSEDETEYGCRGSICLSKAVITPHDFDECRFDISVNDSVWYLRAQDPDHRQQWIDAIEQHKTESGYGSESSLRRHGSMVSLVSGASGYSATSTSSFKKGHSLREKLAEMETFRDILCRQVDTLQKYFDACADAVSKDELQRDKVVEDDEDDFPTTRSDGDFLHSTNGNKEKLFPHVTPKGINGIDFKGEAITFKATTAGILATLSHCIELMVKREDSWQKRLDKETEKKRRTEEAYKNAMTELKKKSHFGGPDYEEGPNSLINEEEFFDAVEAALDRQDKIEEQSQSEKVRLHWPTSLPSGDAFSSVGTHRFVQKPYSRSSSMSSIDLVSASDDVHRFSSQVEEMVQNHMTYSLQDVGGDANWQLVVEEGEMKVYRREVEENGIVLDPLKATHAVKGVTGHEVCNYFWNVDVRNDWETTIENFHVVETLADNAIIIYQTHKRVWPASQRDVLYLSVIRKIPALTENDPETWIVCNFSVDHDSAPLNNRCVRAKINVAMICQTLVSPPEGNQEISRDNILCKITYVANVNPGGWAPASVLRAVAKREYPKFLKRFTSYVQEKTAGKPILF

Row | SMILES | EC50 [µM]
1 | CCCCCCCCCCCC(=O)N[C@@H](CO)C[C@@H](O)c1ccccc1 | 22
2 | CCCCCCCCCCCC(=O)N[C@H](CO)C[C@H](O)c1ccccc1 | 25
3 | CCCCCCCCCCCC(=O)N[C@H](CO)C[C@@H](O)c1ccccc1 | 159
4 | CCCCCCCCCCCC(=O)N[C@@H](CO)C[C@H](O)c1ccccc1 | 4
